Experimental data published in publication PMC9578396, “Intrinsic Antibacterial Activity of Xeruborbactam In Vitro: Assessing Spectrum and Mode of Action” (Antimicrobial Agents and Chemotherapy, 2022).
Like-named read-outs stand apart in the source and are kept apart here.

Columns and labels:
PBP2 [1] = biological target: T1, PBP2 (Acinetobacter baumannii, UniProt D0C8Z9); assay: Gel-based Bocillin FL competition PBP binding assay; settings: A. baumannii ACM1320 membranes; Bocillin FL step 0°C for xeruborbactam, 30°C for beta-lactams; read-out: Relative binding IC50, PBP2
T1 construct: endogenous in cells
T1 sequence (D0C8Z9 1-672): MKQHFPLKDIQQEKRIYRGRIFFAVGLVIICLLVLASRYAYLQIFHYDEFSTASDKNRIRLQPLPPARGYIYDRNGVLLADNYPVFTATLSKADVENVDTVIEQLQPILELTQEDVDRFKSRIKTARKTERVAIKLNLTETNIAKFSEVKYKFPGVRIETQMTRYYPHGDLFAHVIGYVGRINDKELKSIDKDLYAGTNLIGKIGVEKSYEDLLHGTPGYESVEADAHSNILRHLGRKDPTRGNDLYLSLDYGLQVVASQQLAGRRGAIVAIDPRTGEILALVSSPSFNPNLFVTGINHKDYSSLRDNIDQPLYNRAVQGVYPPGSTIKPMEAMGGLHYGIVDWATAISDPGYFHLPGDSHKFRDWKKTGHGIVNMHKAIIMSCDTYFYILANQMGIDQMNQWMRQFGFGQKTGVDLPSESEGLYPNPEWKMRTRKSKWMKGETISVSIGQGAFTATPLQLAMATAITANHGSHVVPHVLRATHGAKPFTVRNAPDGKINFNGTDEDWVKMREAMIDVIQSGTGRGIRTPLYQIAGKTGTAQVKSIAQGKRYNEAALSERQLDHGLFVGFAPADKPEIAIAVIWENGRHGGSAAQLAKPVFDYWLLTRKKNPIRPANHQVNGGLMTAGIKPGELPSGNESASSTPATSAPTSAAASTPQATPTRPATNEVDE
Method: (§1) Ten milliliters of overnight bacterial culture was inoculated in 1 L of LB medium and grown to an OD600 of 0.7 to 0.9. The cell pellet was washed once with 50 mL of solution containing 100 mM Na-phosphate at pH 7.0 and 100 mM NaCl and resuspended in 10 mL of the same buffer with one tablet of EDTA-free mini-protease inhibitor and 10 mg of lysozyme. Cell suspensions were incubated for 45 min at 37°C, and then 200 μL of DNase I was added along with MgSO4 (to a final concentration of 10 mM), followed by three cycles of freeze-thawing (10 min and 20 min, respectively). Four cycles of sonication at maximum power were performed next, each cycle lasting for 30 s with 1 min on ice between cycles. The cell suspension was centrifuged at 12,000 × g for 10 min at 4°C. The supernatant was collected and centrifuged at 100,000 × g for 45 min at 4°C. The pellet was washed three times with 10 mL of 100 mM Na-phosphate, pH 7.0, by resuspension and subsequent centrifugation at 100,000 × g for 10 min at 4°C. The pellet was finally resuspended in 1.5 mL of 100 mM Na-phosphate, pH 7.0, and passed several times through a Dounce homogenizer (tight pestle). Membrane preparations were aliquoted and kept at −80°C.
(§2) Five microliters of total bacterial membrane preparation was mixed with 5 μL of a test compound at a desired concentration in 100 mM Na-phosphate buffer, pH 7.0. Incubation of bacterial membrane preparations with control beta-lactams was performed for 10 min at 30°C; xeruborbactam was incubated with membrane preparations for 1 h at 30°C. Five microliters of 150 μM Bocillin FL fluorescent probe (Thermo Fisher Scientific) was added, and the reaction mixture was incubated for an additional 10 min at 30°C in the case of beta-lactams or for 20 min on ice (0°C) in the case of xeruborbactam. […] At the end of the incubation step, 15 μL of 2× SDS sample loading buffer was added, and the reaction mixture was incubated for 5 min at 95°C. Twenty-five microliters of the reaction mixture was then loaded on an 8% SDS Tris-glycine gel (Thermo Fisher Scientific). At the end of the run, the gel was briefly rinsed with water and fixed in 10% acetic acid, 40% methanol for 20 min. After an additional wash in water for 30 min, the gel was scanned on a Typhoon Trio+ Imager using a blue laser filter (excitation, 488 nm, and emission, 520 nm). Densitometry of the gel images was performed using ImageQuant software (Molecular Dynamics). IC50 values were calculated with Prism software (GraphPad).

PBP1b = PBP1b (Pseudomonas aeruginosa, UniProt G3XD31); assay: as above
Method: as §1, §2

PBP2 [2] = biological target: T2, PBP2 (Pseudomonas aeruginosa, UniProt Q9X6V3); design: method as in PMID 18250190; settings: value in parentheses; P. aeruginosa PAO1; cited from earlier work
T2 construct: Five microliters of total bacterial membrane preparation was mixed with 5 μL of a test compound; endogenous in cells

PBP1a = biological target: T3, PBP1a (Pseudomonas aeruginosa, UniProt Q07806); design: method as in PMID 18250190; settings: value in parentheses; P. aeruginosa PAO1; cited from earlier work
T3 construct: Five microliters of total bacterial membrane preparation was mixed with 5 μL of a test compound; endogenous in cells

E. coli strain ECM5497 = settings: xeruborbactam at ≥2× MIC, 48 h at 37°C
Method: (§3) Beta-lactamase-negative strains of E. coli (strain ECM5497), A. baumannii (strain AB1007), and K. pneumoniae (strain KPM1026a) were used in resistance development studies. […] […] Single colonies from xeruborbactam-containing plates were grown twice on a nonselective medium before their antimicrobial-resistance levels were assessed. For K. pneumoniae KPM1026a, several independent cultures were used in resistance studies.

[3] = system: A. baumannii strain AB1007; settings: xeruborbactam at ≥2× MIC, 48 h at 37°C
Method: as §3

[4] = biological target: PBP1a/PBP1b, PBP2, and PBP3; assay: Bocillin FL competition PBP binding assay, summary for two species; settings: PBP2, and PBP3 from E. coli and K. pneumoniae, read-out: IC50 range
Method: as §1, with “Membrane preparations were aliquoted and kept at −80°C.” left out
Five microliters of total bacterial membrane preparation was mixed with 5 μL of a test compound at a desired concentration in 100 mM Na-phosphate buffer, pH 7.0. […] IC50 values were calculated with Prism software (GraphPad).

PBP1b, sequence (G3XD31 entry or part of it): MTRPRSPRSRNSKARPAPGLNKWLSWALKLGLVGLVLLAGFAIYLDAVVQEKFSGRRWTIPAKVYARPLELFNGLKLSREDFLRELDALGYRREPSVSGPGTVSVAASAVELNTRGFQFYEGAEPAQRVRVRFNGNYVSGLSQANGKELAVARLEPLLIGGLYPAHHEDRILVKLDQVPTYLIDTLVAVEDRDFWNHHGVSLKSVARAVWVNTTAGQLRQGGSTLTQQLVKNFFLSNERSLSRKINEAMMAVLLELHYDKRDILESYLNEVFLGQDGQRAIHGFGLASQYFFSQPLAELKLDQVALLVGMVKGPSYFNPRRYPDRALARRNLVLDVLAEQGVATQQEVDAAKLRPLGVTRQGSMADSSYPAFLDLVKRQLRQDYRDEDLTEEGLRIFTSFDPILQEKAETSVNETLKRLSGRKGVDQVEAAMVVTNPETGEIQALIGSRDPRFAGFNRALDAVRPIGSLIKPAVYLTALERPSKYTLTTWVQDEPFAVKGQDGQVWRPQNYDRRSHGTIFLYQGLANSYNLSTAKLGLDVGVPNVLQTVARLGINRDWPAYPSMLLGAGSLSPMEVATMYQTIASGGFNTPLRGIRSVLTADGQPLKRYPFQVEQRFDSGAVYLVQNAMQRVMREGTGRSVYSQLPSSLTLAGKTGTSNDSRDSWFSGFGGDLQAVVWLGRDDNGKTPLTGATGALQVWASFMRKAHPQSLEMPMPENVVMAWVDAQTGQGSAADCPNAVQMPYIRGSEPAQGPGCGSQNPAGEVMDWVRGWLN
T2 sequence (Q9X6V3 1-646): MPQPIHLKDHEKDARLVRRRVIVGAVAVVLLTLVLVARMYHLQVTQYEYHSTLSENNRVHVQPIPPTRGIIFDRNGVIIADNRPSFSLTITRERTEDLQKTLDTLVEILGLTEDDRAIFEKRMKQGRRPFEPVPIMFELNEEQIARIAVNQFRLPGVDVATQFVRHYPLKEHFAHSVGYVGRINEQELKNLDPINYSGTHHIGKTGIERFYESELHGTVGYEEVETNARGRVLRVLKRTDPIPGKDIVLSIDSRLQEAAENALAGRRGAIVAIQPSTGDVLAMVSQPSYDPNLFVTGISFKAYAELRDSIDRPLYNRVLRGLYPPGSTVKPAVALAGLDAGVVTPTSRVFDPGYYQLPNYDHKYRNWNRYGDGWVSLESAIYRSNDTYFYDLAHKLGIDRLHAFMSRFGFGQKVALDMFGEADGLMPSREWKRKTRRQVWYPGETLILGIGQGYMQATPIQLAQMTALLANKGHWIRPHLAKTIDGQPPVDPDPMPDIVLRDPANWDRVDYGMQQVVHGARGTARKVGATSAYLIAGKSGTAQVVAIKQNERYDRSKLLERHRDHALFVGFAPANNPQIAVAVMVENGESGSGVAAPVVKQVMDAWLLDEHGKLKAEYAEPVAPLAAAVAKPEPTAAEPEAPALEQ
T3 sequence (Q07806 whole entry): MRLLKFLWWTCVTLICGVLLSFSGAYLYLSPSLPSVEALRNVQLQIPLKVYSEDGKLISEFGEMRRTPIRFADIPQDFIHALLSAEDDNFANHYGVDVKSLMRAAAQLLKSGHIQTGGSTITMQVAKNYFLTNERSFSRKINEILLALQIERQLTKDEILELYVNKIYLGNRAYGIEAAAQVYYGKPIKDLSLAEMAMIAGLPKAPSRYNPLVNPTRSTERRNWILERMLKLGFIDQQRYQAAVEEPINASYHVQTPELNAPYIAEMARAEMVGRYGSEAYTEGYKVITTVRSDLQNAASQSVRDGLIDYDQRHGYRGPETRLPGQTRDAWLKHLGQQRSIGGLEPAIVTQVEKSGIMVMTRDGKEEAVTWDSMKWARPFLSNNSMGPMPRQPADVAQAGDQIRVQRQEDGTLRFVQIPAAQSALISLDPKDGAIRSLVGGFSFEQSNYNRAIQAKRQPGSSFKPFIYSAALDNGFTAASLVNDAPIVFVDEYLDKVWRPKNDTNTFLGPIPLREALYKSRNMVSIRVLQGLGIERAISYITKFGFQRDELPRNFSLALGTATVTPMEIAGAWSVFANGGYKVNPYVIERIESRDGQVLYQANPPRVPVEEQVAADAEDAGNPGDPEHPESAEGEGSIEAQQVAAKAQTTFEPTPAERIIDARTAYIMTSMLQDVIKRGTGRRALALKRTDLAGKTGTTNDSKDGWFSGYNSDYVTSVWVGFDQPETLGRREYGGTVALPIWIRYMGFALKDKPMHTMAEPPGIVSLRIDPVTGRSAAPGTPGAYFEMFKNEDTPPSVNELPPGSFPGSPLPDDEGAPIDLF

C[C@@H](O)[C@H]1C(=O)N2C(C(=O)O)=C(S[C@@H]3CN[C@H](C(=O)N(C)C)C3)[C@H](C)[C@H]12 [Meropenem]
IC50 (PBP2 [1]): 11 nM | IC50 (PBP1b; read-out: Relative binding IC50, PBP1b; P. aeruginosa PAM3034 membranes; Bocillin FL step 0°C for xeruborbactam, 30°C for beta-lactams): 230 nM | IC50 (PBP2 [2]): 50 nM | IC50 (PBP1a): 500 nM

O=C(O)c1c(F)ccc2c1OB(O)[C@@H]1C[C@H]21 [Xeruborbactam]
frequency of resistance (FOR) (E. coli strain ECM5497): < 2 × 10^−9 | frequency of resistance (FOR) [3]: < 2 × 10^−9 | IC50 [4]: 40000 to 70000 nM | IC50 (PBP2 [1]): 23000 ± 2000 nM | IC50 (PBP1b; P. aeruginosa PAM3034 membranes; Bocillin FL step 0°C for xeruborbactam, 30°C for beta-lactams; listed as xeruborbactam; read-out: Relative binding IC50, PBP1b): 7100 ± 800 nM | IC50 (PBP1b; P. aeruginosa PAM3034 membranes; Bocillin FL step 0°C for xeruborbactam, 30°C for beta-lactams; read-out: Relative binding IC50, PBP1b): 1900 ± 200 nM
